In BindingDB's records for doi:10.1111/cbdd.12807 (Zhejiang Hospital, 2016):
pIC50: −log10 of the molar value.

Legend:
[1] = biological target: 72 kDa type IV collagenase (Rat, UniProt P33436); assay: enzyme-based fluorimetric assay; conditions: pH 7.5; 25 °C
Text: (§1) For this assay, the reagents used as follows. The substrate corresponds to Mca-Pro-Leu-Gly-Leu-Dpa-Ala-Arg 25 mm in assay buffer. This low-fluorescent peptide is cleaved by MMPs to provide Mca-Pro-Leu-Gly, which is intensely fluorescent at an excitation at 340 nm and emission at 405 nm. While the enzymes pro-MMP-2 250 pm and MMP-9 (recombinant catalytic sequence) 500 pm in assay buffer. The assay buffer consists of Tris HCl 0.1 m, pH 7.5, NaCl 0.1 m, CaCl2 10 mm, 0.05% v/v BRIJ35, APMA (p-aminophenylmercuric acetate) 1 mm. This was carried out in 96-well plate, a solution of […] at the appropriate concentration and […] was incubated together at 25 °C for 30 min, and […] of substrate solution was added and the plate was further incubated 3 h at 37 °C. The incubation solutions were quenched with acetic acid ([…] soln.) and their fluorescence was recorded with the help of a plate reader spectrometer. The inhibitory activities were calculated against a control and IC50 curves, derived from 6 different inhibitor concentrations, extrapolated by means of statistical analysis program graphpad prism (v. 4.0; San Diego, CA, USA). Each inhibitor concentration was used in triplicate and the experiments run twice.

[2] = biological target: Matrix metalloproteinase-9 (Rattus norvegicus, UniProt P50282); assay: enzyme-based fluorimetric assay; conditions: pH 7.5; 25 °C
Matrix metalloproteinase-9, sequence (P50282 whole entry): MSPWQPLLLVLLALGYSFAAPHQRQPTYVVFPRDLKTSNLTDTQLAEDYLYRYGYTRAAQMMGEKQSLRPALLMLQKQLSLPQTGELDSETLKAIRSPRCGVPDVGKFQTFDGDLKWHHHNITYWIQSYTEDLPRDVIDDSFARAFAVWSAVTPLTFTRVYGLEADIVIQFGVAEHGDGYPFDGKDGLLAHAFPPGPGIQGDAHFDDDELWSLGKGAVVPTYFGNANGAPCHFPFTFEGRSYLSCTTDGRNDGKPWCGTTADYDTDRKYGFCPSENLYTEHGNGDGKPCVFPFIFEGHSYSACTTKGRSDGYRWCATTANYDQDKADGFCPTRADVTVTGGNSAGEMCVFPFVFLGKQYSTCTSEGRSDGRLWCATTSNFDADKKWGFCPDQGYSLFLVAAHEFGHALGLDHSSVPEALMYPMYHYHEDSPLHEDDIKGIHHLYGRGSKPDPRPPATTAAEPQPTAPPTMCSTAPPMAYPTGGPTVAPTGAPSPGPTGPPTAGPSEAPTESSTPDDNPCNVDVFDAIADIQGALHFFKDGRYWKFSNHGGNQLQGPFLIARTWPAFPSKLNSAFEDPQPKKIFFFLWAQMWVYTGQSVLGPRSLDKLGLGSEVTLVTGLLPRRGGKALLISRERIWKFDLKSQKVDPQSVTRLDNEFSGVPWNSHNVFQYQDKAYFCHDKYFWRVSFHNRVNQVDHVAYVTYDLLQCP
Text: as §1

72 kDa type IV collagenase, sequence (P33436 whole entry): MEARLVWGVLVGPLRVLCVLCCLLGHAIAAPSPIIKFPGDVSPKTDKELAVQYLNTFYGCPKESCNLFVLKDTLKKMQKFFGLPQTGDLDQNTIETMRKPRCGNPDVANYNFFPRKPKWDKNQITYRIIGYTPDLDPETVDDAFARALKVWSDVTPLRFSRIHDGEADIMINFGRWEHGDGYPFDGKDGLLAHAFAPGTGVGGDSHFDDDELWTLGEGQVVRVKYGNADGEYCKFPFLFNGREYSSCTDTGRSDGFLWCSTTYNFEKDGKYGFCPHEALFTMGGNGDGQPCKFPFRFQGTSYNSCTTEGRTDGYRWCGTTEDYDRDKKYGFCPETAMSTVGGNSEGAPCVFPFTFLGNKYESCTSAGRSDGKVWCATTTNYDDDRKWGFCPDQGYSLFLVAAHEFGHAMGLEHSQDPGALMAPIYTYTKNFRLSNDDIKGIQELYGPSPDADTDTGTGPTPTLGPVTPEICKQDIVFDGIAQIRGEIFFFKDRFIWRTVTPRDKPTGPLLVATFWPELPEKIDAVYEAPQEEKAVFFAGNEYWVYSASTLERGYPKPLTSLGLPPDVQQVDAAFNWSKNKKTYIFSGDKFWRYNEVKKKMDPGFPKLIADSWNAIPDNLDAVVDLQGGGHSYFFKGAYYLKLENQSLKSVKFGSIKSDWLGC

pIC50 [1] | pIC50 [2] | Structure (SMILES)
8.09 | 8.63 | COc1ccc(-c2cc(-c3ccc(NS(=O)(=O)c4ccc(C)cc4)cc3)nn2-c2nc(Nc3ccc(O)cc3)nc(Nc3ccc(O)cc3)n2)cc1 [N-(4-(1-(4,6-bis((4-hydroxyphenyl)amino)-1,3,5-triazin-2-yl)-5-(4-methoxyphenyl)-1H-pyrazol-3-yl)phenyl)-4-methylbenzenesulphonamide (8e)]
7.73 | 7.99 | COc1ccc(Nc2nc(Nc3ccc(OC)cc3)nc(-n3nc(-c4ccc(NS(=O)(=O)c5ccc(C)cc5)cc4)cc3-c3ccc(OC)cc3)n2)cc1 [N-(4-(1-(4,6-bis((4-methoxyphenyl)amino)-1,3,5-triazin-2-yl)-5-(4-methoxyphenyl)-1H-pyrazol-3-yl)phenyl)-4-methylbenzenesulphonamide (8f)]
6.72 | 6.81 | COc1ccc(-c2cc(-c3ccc(NS(=O)(=O)c4ccc(C)cc4)cc3)nn2-c2nc(NCCCN)nc(NCCCN)n2)cc1 [N-(4-(1-(4,6-bis((3-aminopropyl)amino)-1,3,5-triazin-2-yl)-5-(4-methoxyphenyl)-1H-pyrazol-3-yl)phenyl)-4-methylbenzenesulphonamide (8c)]
6.18 | 6.20 | CNc1nc(NC)nc(-n2nc(-c3ccc(NS(=O)(=O)c4ccc(C)cc4)cc3)cc2-c2ccc(OC)cc2)n1 [N-(4-(1-(4,6-bis(methylamino)-1,3,5-triazin-2-yl)-5-(4-methoxyphenyl)-1H-pyrazol-3-yl)phenyl)-4-methylbenzenesulphonamide (8a)]
7.26 | 7.33 | COc1ccc(-c2cc(-c3ccc(NS(=O)(=O)c4ccc(C)cc4)cc3)nn2-c2nc(N3CCNCC3)nc(N3CCNCC3)n2)cc1 [N-(4-(1-(4,6-di(piperazin-1-yl)-1,3,5-triazin-2-yl)-5-(4-methoxyphenyl)-1H-pyrazol-3-yl)phenyl)-4-methylbenzenesulphonamide (8i)]
6.48 | 6.52 | CCNc1nc(NCC)nc(-n2nc(-c3ccc(NS(=O)(=O)c4ccc(C)cc4)cc3)cc2-c2ccc(OC)cc2)n1 [N-(4-(1-(4,6-bis(ethylamino)-1,3,5-triazin-2-yl)-5-(4-methoxyphenyl)-1H-pyrazol-3-yl)phenyl)-4-methylbenzenesulphonamide (8b)]
7.17 | 7.23 | COc1ccc(-c2cc(-c3ccc(NS(=O)(=O)c4ccc(C)cc4)cc3)nn2-c2nc(Nc3ccccc3C)nc(Nc3ccccc3C)n2)cc1 [N-(4-(1-(4,6-bis(o-tolylamino)-1,3,5-triazin-2-yl)-5-(4-methoxyphenyl)-1H-pyrazol-3-yl)phenyl)-4-methylbenzenesulphonamide (8g)]
6.91 | 6.98 | COc1ccc(-c2cc(-c3ccc(NS(=O)(=O)c4ccc(C)cc4)cc3)nn2-c2nc(Nc3ccccc3)nc(Nc3ccccc3)n2)cc1 [N-(4-(1-(4,6-bis(phenylamino)-1,3,5-triazin-2-yl)-5-(4-methoxyphenyl)-1H-pyrazol-3-yl)phenyl)-4-methylbenzenesulphonamide (8d)]
7.37 | 7.51 | COc1ccc(-c2cc(-c3ccc(NS(=O)(=O)c4ccc(C)cc4)cc3)nn2-c2nc(N3CCOCC3)nc(N3CCOCC3)n2)cc1 [N-(4-(1-(4,6-dimorpholino-1,3,5-triazin-2-yl)-5-(4-methoxyphenyl)-1H-pyrazol-3-yl)phenyl)-4-methylbenzenesulphonamide (8j)]
7.12 | 7.16 | COc1ccc(-c2cc(-c3ccc(NS(=O)(=O)c4ccc(C)cc4)cc3)nn2-c2nc(Nc3ccc([N+](=O)[O-])cc3)nc(Nc3ccc([N+](=O)[O-])cc3)n2)cc1 [N-(4-(1-(4,6-bis((4-nitrophenyl)amino)-1,3,5-triazin-2-yl)-5-(4-methoxyphenyl)-1H-pyrazol-3-yl)phenyl)-4-methylbenzenesulphonamide (8h)]
